# Laboratory results reported in PubChem BioAssay (NCI).
#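 At the GI50, growth is halved. TGI: concentration producing complete growth inhibition.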
# Tests used:
# Assay in all cases: NCI-60 cell line screen, 384-well format
# 786-0 renal = test system: 786-0 renal
# A498 renal = test system: A498 renal
# A549 NSCLC = test system: A549 NSCLC
# ACHN renal = test system: ACHN renal
# BT-549 breast = test system: BT-549 breast
# CAKI-1 renal = test system: CAKI-1 renal
# CCRF-CEM leukemia = test system: CCRF-CEM leukemia
# COLO 205 colon = test system: COLO 205 colon
# DU-145 prostate = test system: DU-145 prostate
# EKVX NSCLC = test system: EKVX NSCLC
# HCC-2998 colon = test system: HCC-2998 colon
# HCT-116 colon = test system: HCT-116 colon
# HCT-15 colon = test system: HCT-15 colon
# HL-60(TB) leukemia = test system: HL-60(TB) leukemia
# HOP-62 NSCLC = test system: HOP-62 NSCLC
# HOP-92 NSCLC = test system: HOP-92 NSCLC
# HS 578T breast = test system: HS 578T breast
# HT29 colon = test system: HT29 colon
# IGROV1 ovarian = test system: IGROV1 ovarian
# K-562 leukemia = test system: K-562 leukemia
# KM12 colon = test system: KM12 colon
# LOX IMVI melanoma = test system: LOX IMVI melanoma
# M14 melanoma = test system: M14 melanoma
# MALME-3M melanoma = test system: MALME-3M melanoma
# MCF7 breast = test system: MCF7 breast
# MDA-MB-231 breast = test system: MDA-MB-231 breast
# MDA-MB-435 melanoma = test system: MDA-MB-435 melanoma
# MDA-MB-468 breast = test system: MDA-MB-468 breast
# MOLT-4 leukemia = test system: MOLT-4 leukemia
# NCI-H226 lung = test system: NCI-H226 lung
# NCI-H23 lung = test system: NCI-H23 lung
# NCI-H322M lung = test system: NCI-H322M lung
# NCI-H460 NSCLC = test system: NCI-H460 NSCLC
# NCI-H522 lung = test system: NCI-H522 lung
# NCI/ADR-RES ovarian = test system: NCI/ADR-RES ovarian
# OVCAR-3 ovarian = test system: OVCAR-3 ovarian
# OVCAR-4 ovarian = test system: OVCAR-4 ovarian
# OVCAR-5 ovarian = test system: OVCAR-5 ovarian
# PC-3 prostate = test system: PC-3 prostate
# RPMI-8226 leukemia = test system: RPMI-8226 leukemia
# RXF 393 renal = test system: RXF 393 renal
# SF-268 CNS = test system: SF-268 CNS
# SF-295 CNS = test system: SF-295 CNS
# SF-539 CNS = test system: SF-539 CNS
# SK-MEL-2 melanoma = test system: SK-MEL-2 melanoma
# SK-MEL-28 melanoma = test system: SK-MEL-28 melanoma
# SK-MEL-5 melanoma = test system: SK-MEL-5 melanoma
# SK-OV-3 ovarian = test system: SK-OV-3 ovarian
# SN12C renal = test system: SN12C renal
# SNB-19 CNS = test system: SNB-19 CNS
# SNB-75 CNS = test system: SNB-75 CNS
# SR leukemia = test system: SR leukemia
# SW-620 colon = test system: SW-620 colon
# T-47D breast = test system: T-47D breast
# TK-10 renal = test system: TK-10 renal
# U251 glioblastoma = test system: U251 glioblastoma
# UACC-257 melanoma = test system: UACC-257 melanoma
# UACC-62 melanoma = test system: UACC-62 melanoma
# UO-31 renal = test system: UO-31 renal
smiles,measurement,setting,value
CC(C)=CCC/C(C)=C/CC/C(C)=C/CSc1ccccc1C(=O)O,GI50,786-0 renal,> 100 µM
same,TGI,786-0 renal,> 100 µM
same,GI50,A498 renal,> 100 µM
same,TGI,A498 renal,> 100 µM
same,GI50,A549 NSCLC,90.1 µM
same,TGI,A549 NSCLC,> 100 µM
same,GI50,ACHN renal,> 100 µM
same,TGI,ACHN renal,> 100 µM
same,GI50,BT-549 breast,> 100 µM
same,TGI,BT-549 breast,> 100 µM
same,GI50,CAKI-1 renal,> 100 µM
same,TGI,CAKI-1 renal,> 100 µM
same,GI50,CCRF-CEM leukemia,45.2 µM
same,TGI,CCRF-CEM leukemia,> 100 µM
same,GI50,COLO 205 colon,> 100 µM
same,TGI,COLO 205 colon,> 100 µM
same,GI50,DU-145 prostate,> 100 µM
same,TGI,DU-145 prostate,> 100 µM
same,GI50,EKVX NSCLC,> 100 µM
same,TGI,EKVX NSCLC,> 100 µM
same,GI50,HCC-2998 colon,> 100 µM
same,TGI,HCC-2998 colon,> 100 µM
same,GI50,HCT-116 colon,> 100 µM
same,TGI,HCT-116 colon,> 100 µM
same,GI50,HCT-15 colon,73.3 µM
same,TGI,HCT-15 colon,> 100 µM
same,GI50,HL-60(TB) leukemia,83.7 µM
same,TGI,HL-60(TB) leukemia,> 100 µM
same,GI50,HOP-62 NSCLC,> 100 µM
same,TGI,HOP-62 NSCLC,> 100 µM
same,GI50,HOP-92 NSCLC,> 100 µM
same,TGI,HOP-92 NSCLC,> 100 µM
same,GI50,HS 578T breast,> 100 µM
same,TGI,HS 578T breast,> 100 µM
same,GI50,HT29 colon,> 100 µM
same,TGI,HT29 colon,> 100 µM
same,GI50,IGROV1 ovarian,> 100 µM
same,TGI,IGROV1 ovarian,> 100 µM
same,GI50,K-562 leukemia,> 100 µM
same,TGI,K-562 leukemia,> 100 µM
same,GI50,KM12 colon,> 100 µM
same,TGI,KM12 colon,> 100 µM
same,GI50,LOX IMVI melanoma,> 100 µM
same,TGI,LOX IMVI melanoma,> 100 µM
same,GI50,M14 melanoma,> 100 µM
same,TGI,M14 melanoma,> 100 µM
same,GI50,MALME-3M melanoma,> 100 µM
same,TGI,MALME-3M melanoma,> 100 µM
same,GI50,MCF7 breast,> 100 µM
same,TGI,MCF7 breast,> 100 µM
same,GI50,MDA-MB-231 breast,> 100 µM
same,TGI,MDA-MB-231 breast,> 100 µM
same,GI50,MDA-MB-435 melanoma,> 100 µM
same,TGI,MDA-MB-435 melanoma,> 100 µM
same,GI50,MDA-MB-468 breast,> 100 µM
same,TGI,MDA-MB-468 breast,> 100 µM
same,GI50,MOLT-4 leukemia,51.3 µM
same,TGI,MOLT-4 leukemia,> 100 µM
same,GI50,NCI-H226 lung,> 100 µM
same,TGI,NCI-H226 lung,> 100 µM
same,GI50,NCI-H23 lung,> 100 µM
same,TGI,NCI-H23 lung,> 100 µM
same,GI50,NCI-H322M lung,> 100 µM
same,TGI,NCI-H322M lung,> 100 µM
same,GI50,NCI-H460 NSCLC,> 100 µM
same,TGI,NCI-H460 NSCLC,> 100 µM
same,GI50,NCI-H522 lung,16.2 µM
same,TGI,NCI-H522 lung,43.6 µM
same,GI50,NCI/ADR-RES ovarian,> 100 µM
same,TGI,NCI/ADR-RES ovarian,> 100 µM
same,GI50,OVCAR-3 ovarian,> 100 µM
same,TGI,OVCAR-3 ovarian,> 100 µM
same,GI50,OVCAR-4 ovarian,> 100 µM
same,TGI,OVCAR-4 ovarian,> 100 µM
same,GI50,OVCAR-5 ovarian,> 100 µM
same,TGI,OVCAR-5 ovarian,> 100 µM
same,GI50,PC-3 prostate,> 100 µM
same,TGI,PC-3 prostate,> 100 µM
same,GI50,RPMI-8226 leukemia,47.9 µM
same,TGI,RPMI-8226 leukemia,> 100 µM
same,GI50,RXF 393 renal,70.4 µM
same,TGI,RXF 393 renal,> 100 µM
same,GI50,SF-268 CNS,> 100 µM
same,TGI,SF-268 CNS,> 100 µM
same,GI50,SF-295 CNS,> 100 µM
same,TGI,SF-295 CNS,> 100 µM
same,GI50,SF-539 CNS,> 100 µM
same,TGI,SF-539 CNS,> 100 µM
same,GI50,SK-MEL-2 melanoma,> 100 µM
same,TGI,SK-MEL-2 melanoma,> 100 µM
same,GI50,SK-MEL-28 melanoma,> 100 µM
same,TGI,SK-MEL-28 melanoma,> 100 µM
same,GI50,SK-MEL-5 melanoma,> 100 µM
same,TGI,SK-MEL-5 melanoma,> 100 µM
same,GI50,SK-OV-3 ovarian,> 100 µM
same,TGI,SK-OV-3 ovarian,> 100 µM
same,GI50,SN12C renal,> 100 µM
same,TGI,SN12C renal,> 100 µM
same,GI50,SNB-19 CNS,> 100 µM
same,TGI,SNB-19 CNS,> 100 µM
same,GI50,SNB-75 CNS,> 100 µM
same,TGI,SNB-75 CNS,> 100 µM
same,GI50,SR leukemia,54.2 µM
same,TGI,SR leukemia,> 100 µM
same,GI50,SW-620 colon,> 100 µM
same,TGI,SW-620 colon,> 100 µM
same,GI50,T-47D breast,> 100 µM
same,TGI,T-47D breast,> 100 µM
same,GI50,TK-10 renal,> 100 µM
same,TGI,TK-10 renal,> 100 µM
same,GI50,U251 glioblastoma,> 100 µM
same,TGI,U251 glioblastoma,> 100 µM
same,GI50,UACC-257 melanoma,> 100 µM
same,TGI,UACC-257 melanoma,> 100 µM
same,GI50,UACC-62 melanoma,> 100 µM
same,TGI,UACC-62 melanoma,> 100 µM
same,GI50,UO-31 renal,> 100 µM
same,TGI,UO-31 renal,> 100 µM
